Test results as given in patent US10443044B2, “Generating cardiac progenitor cells from pluripotent stem cells using isoxazole or isoxazole like compounds” (IPS Heart, priority 2014, dated 2019).
“Also recorded” adds a separate entry of the source. Values belong to the molecule of their own block, whether it stands above or below them.

Assays:
[1] = system: DNA methyltransferase (DNMT); assay: DNA methyltransferase (DNMT) activity assay in small molecule treated SiPS; assay type: cell-based, mouse
Method: (§1) In order to direct SiPS towards cardiac lineage cells, they were treated with a small molecule (Isoxazole, 20 uM, Sigma-Aldrich or ISX-9, StemCell Technologies, Inc Vancouver, BC) for five days and analyzed for DNA methyltransferase (Dnmt) activity, cell proliferation, and cardiac gene expression.
Nuclear extracts were isolated using the NE-PER Nuclear and Cytoplasmic Extraction Kit (Thermo Scientific, IL USA). Total DNMT activity was determined using an EpiQuik DNA methyltransferase activity assay kit (Epigentek, Brooklyn, N.Y.) per manufacturer's protocol. Enzyme activity for samples and controls was measured on a microplate reader (Hidex Chameleon, Finland) at 450 nm and DNMT activity (OD/h/ml) was calculated according to the formula: (Sample OD−blank OD)/(sample volume)×1000.

SiPS = assay: Cell proliferation assay (MTS); assay type: cell-based, mouse; settings: treated vs non treated SiPS, p<0.01; listed as small molecule
Method: as §1
The cell proliferation assay was performed with the use of the MTS [3-(4,5-dimethylthiazol-2-yl)-5-(3-carboxymethoxyphenyl)-2-(4-sulfophenyl)-2H-tetrazolium] assay according to the manufacturer's recommendations (Promega). The plates were read at 490 nm using an automated ELISA plate-reader for the quantity of formazan product which was directly proportional to the number of living cells in culture.

IPS cells [2] = assay: Oxidant induced apoptosis, TUNEL assay; assay type: cell-based, mouse; settings: pretreated IPS vs non-treated IPS, listed as small molecule
Method: In FIG. 3A, apoptosis was determined by TUNEL assay. […] All values were expressed as mean±SEM, * p<0.05 vs. control.
as §1

IPS cells [3] = assay: Cytochrome c translocation to cytoplasm after H2O2, immunostaining; assay type: cell-based, mouse; settings: after exposure to H2O2 (100 μmol), vs non-treated IPS cells
Method: Immunostaining of cytochrome c in non-treated and small molecule, isoxazole or isoxazole like compounds treated IPS cells after exposure to H2O2 ([…]), (merged images with DAPI), (original magnifications; 200×).
as §1

Nkx-2.5 = assay: Cardiac gene expression, RT-PCR and immunostaining; assay type: cell-based, mouse
Method: as §1
Total RNA from small molecule treated and non-treated SiPS cells was isolated using RNeasy mini kit (Qiagen, Maryland, USA) and Omniscript Reverse Transcription kit (Qiagen, Maryland, USA) was used for the respective cDNA synthesis per manufacturer's instructions. […] PCR conditions included initial denaturation at 95° C. for 4 minutes, 32 cycles of denaturation at 95° C. for 1 minute, annealing at 55° C. for 1 minute, extension at 72° C. for 1 minute and final extension at 72° C. for 7 minutes. The PCR products were separated on 1.5% agarose gel, stained with ethidium bromide and visualized and photographed on a UV transluminator (Bio-Rad, USA).
For immunocytochemistry, differentiated colonies of SiPS were immunostained with respective specific primary antibodies (anti-Oct3/4, anti-Sox2, anti-Nanog antibodies, all at 1:100 concentration; Cell Signaling, Danvers, USA). […] The primary antibody-antigen reaction was detected with fluorescently conjugated specific secondary antibodies. […] Fluorescence signals were observed and photographed using fluorescence microscopy (Olympus; Tokyo, Japan).

IPS cells [4] = assay: Affymetrix array-based gene expression profiling; assay type: cell-based, mouse
Method: as §1
(§2) Approximately 60% treated iPS cells were positive for Nkx-2.5. Given that posttranscriptional regulation is crucial for gene expression and cell survival molecular phenotypic analysis was performed, Affymetrix array-based gene expression profiling further confirmed 2-3 folds downregulation of Dnmt1, Dnmt3b and Max gene associated protein which were associated with global DNA hypomethylation and myc dependent cell transformation (see Table 1). Additionally, there was a 2-3 fold concomitant upregulation in the CCL7, CXCR2, CXCR5, integral membrane protein 2A, and ephrin A3. (FIG. 6).
Affymetrix array-based gene expression profiling further confirmed 2-3 folds downregulation of Dnmt1, Dnmt3b and Max gene associated protein which were associated with global DNA hypomethylation and myc dependent cell transformation. In addition, there was 2-3 folds concomitant upregulation of CCL7, CXCR2, CXCR5, integral membrane protein 2A, and EphrinA3.

IPS cells [5] = assay: miR microarray analysis; assay type: cell-based, mouse; settings: treated vs non-treated IPS cells
Method: FIGS. 7A-7E show miR-microarray analysis of small molecule, isoxazole like compounds treated IPS vs non-treated IPS cells. Microarray analysis showing miR expression profile in non-treated IPS cells was quite different from small molecule treated IPS cells.
as §2

Gαi = assay: Western blot of Gα protein (GPCR signaling); assay type: cell-based, mouse
[6] = system: Human iPSC line (ACS-1021); assay: Generation of cardiac progenitor cells from human iPS cells and differentiation into three lineages; assay type: cell-based
[7] = system: Skeletal myoblasts (SMs) from Oct3/4-GFP+ transgenic mouse; assay: Reprogramming of skeletal myoblasts to iPS cells; assay type: cell-based; settings: 500 μM in 0.5% DMSO, 5-days; two weeks later
Method: Skeletal myoblasts (SMs) purified from young male Oct3/4-GFP^+ transgenic mouse were treated with DNA methyltransferase inhibitor 500 μM RG-108 in 0.5% DMSO in knock out DMEM for 5-days. […] Although the research described herein was conducted in a murine model, the use of the same markers and agents will provide similar if not identical results in human cells and tissue.

[8] = Affymetrix array, treated vs non-treated iPS cells
[9] = IPs + Small Molecule, regulation down
[10] = IPs + Small Molecule, regulation up
[11] = basal differentiation conditions
[12] = hiPSC, 7 day small molecule treatment

DNMT activity ([1]; SiPS, 20 uM, five days): completely abolished
Molecule: O=C(NC1CC1)c1cc(-c2cccs2)on1 [ISX-9, N-cyclopropyl-5-thiophen-2-yl-1,2-oxazole-3-carboxamide]
reduction in global DNA methylation ([1]; SiPS, 20 uM, five days, FIG. 2): 95%
inhibition of DNA methyltransferase activity ([1]; treated IPS cells vs nontreated IPS cells, FIG. 2): 95%
proliferative activity / mitogenic response (SiPS): increased proliferative activity; also recorded: increase in mitogenic response
apoptosis (TUNEL positive cells) (IPS cells [2]): tolerant to apoptosis; also recorded: reduced the apoptosis; also recorded: Fewer TUNEL positive cells/microscopic field
cytochrome c translocation to cytoplasm (IPS cells [3]): significant decrease
treated iPS cells positive for Nkx-2.5 (Nkx-2.5; SiPS, 20 uM, five days): Approximately 60%
Nkx-2.5 expression, RT-PCR (Nkx-2.5; treated vs non treated IPS, p<0.01): significant upregulation
downregulation of Dnmt1, Dnmt3b and Max gene associated protein (IPS cells [4]; [8]): 2-3 folds
upregulation of CCL7, CXCL2, CXCL5, integral membrane protein 2A and ephrin A3 (IPS cells [4]; [8]): 2-3 fold
Fold change Dnmt1, DNA methyltransferase (IPS cells [4]; [9]): −1.612 fold
Fold change Dnmt3b, DNA methyltransferase 3B (IPS cells [4]; [9]): −1.282 fold
Fold change Mga, MAX gene associated protein (IPS cells [4]; [9]): −1.104 fold
Fold change Ccl7, chemokine (C-C motif) ligand 7 (IPS cells [4]; [10]): 3.316 fold
Fold change Cox6b1, cytochrome c oxidase subunit VIb polypeptide 1 (IPS cells [4]; [10]): 2.546 fold
Fold change Cox16, COX16 cytochrome c oxidase assembly homolog (IPS cells [4]; [10]): 3.006 fold
Fold change Cxcl2, chemokine (C-X-C motif) ligand 2 (IPS cells [4]; [10]): 2.732 fold
Fold change Cxcl5, chemokine (C-X-C motif) ligand 5 (IPS cells [4]; [10]): 2.137 fold
Fold change Efna3, ephrin A3 (IPS cells [4]; [10]): 2.088 fold
Fold change Itm2a, integral membrane protein 2A (IPS cells [4]; [10]): 2.255 fold
Fold change Itm2b, integral membrane protein 2B (IPS cells [4]; [10]): 2.18 fold
Fold change Uqcr10, ubiquinol-cytochrome c reductase complex III subunit X (IPS cells [4]; [10]): 2.298 fold
cardiac specific miR-133, miR-762 expression (IPS cells [5]): upregulation
pluripotency associated miR-290 cluster, miR-574-5p and let-7 family expression (IPS cells [5]): down regulation
Gαi / Gα (pan) protein level (Gαi; Western blot, treated vs untreated IPS cells): significant upregulation
expression of CPC markers including Nkx2.5 and GATA4, RT-PCR and immunostaining ([6]; 20 μM, 7 days, RPMI/B27 minus insulin): observed
spontaneous beating (cardiomyocyte differentiation) ([6]; 7 days treatment, then RPMI/B27 with insulin 7-10 days, end of 20 days): all the cells began spontaneous beating
percentage of CMs (TnT+) from Nkx2.5+ cells [6, 11]: 95.2±2.1%
percentage of ECs (CD31+) from Nkx2.5+ cells [6, 11]: 90.3±2.5%
percentage of SMCs (α-SMA+) from Nkx2.5+ cells [6, 11]: 92.3±1.8%
purity of Nkx2.5 positive cells by FACS [6, 12]: 96.5±2.5%
transcription factors (Nkx2.5, GATA4 and ISL-1), immunofluorescence staining [6, 12]: highly expressed
α-SMA and calponin expression, immunostaining ([6]; induced CPC in DMEM-F12 with TGFβ and PDGFBB, 10 days): observed
endothelial cell markers CD31 and VE-cadherin ([6]; induced CPC in EGM-2 medium, 10 days): expressed
converting iPSC into cardiac progenitors including endothelial/vascular progenitors and smooth muscle cells ([6]; overall conclusion): very effective

Molecule: O=C(O)C(Cc1c[nH]c2ccccc12)N1C(=O)c2ccccc2C1=O [RG-108, N-phthalyl-L-tryptopha]
generation of iPS cell colonies [7]: GFP^+ colonies of SM derived iPS cells (SiPS)

Molecule: pertussis toxin
effect on small molecule induced Gα (pan) upregulation (Gαi; concomitant use with small molecule in IPS cells): blocked
